Assay results published in US7704997B1, “Amino-tetrazole analogues and methods of use” (Abbott Laboratories, priority 2004, dated 2010).

Target: T1, P2X7 receptor (Homo sapiens, UniProt Q99572)
T1 construct: host or cells: THP-1 monocytic cells differentiated overnight with LPS (25 ng/ml) and IFN-gamma (10 ng/ml)
T1 sequence (Q99572 1-595): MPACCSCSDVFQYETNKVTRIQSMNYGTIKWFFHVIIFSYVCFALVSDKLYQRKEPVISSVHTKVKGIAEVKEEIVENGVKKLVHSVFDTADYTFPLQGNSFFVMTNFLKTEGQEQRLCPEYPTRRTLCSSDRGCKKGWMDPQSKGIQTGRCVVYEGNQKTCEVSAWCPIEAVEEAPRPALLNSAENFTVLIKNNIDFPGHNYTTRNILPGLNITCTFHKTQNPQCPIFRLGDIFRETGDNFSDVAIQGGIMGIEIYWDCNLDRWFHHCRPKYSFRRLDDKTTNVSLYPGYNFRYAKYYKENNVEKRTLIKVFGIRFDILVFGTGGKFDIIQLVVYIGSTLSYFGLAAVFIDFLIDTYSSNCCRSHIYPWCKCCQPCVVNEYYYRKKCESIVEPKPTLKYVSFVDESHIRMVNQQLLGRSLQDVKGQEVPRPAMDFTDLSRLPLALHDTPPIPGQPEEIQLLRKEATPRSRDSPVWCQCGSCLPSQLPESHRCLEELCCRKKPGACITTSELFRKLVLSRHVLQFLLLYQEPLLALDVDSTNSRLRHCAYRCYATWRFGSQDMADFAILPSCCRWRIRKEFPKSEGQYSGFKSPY
Assay: P2X7 mediated pore formation (YO-PRO dye uptake, FLIPR)
Assay type: cell-based
Conditions: THP-1 cells
From the text: Tissue Culture: Cells of the THP-1 monocytic cell line (American Type Culture Collection, Rockville, Md.) were maintained in the log phase of growth in RPMI medium containing high glucose and 10% fetal calf serum (Invitrogen, Carlsbad, Calif.) according to established procedures (Humphrey B D and Dubyak G R (1996), Induction of the P2z/P2X7 Nucleotide Receptor and Associated Phospholipase D Activity by Lipopolysaccharide and IFN-γ in the Human THP-1 Monocytic Cell Line. J. Immunology 157:5627-37). Fresh vials of frozen THP-1 cells were initiated for growth every eight weeks. […]
P2X7 Mediated Pore Formation. […] Accordingly, the inhibitory activity of the antagonists of the present invention was determined by their capacity to inhibit the agonist-induced pore formation using the fluorescent dye YO-PRO (MW=629) and Fluorometric Imaging Plate Reader (FLIPR, Molecular Devices, Sunnydale, Calif.). […] The intensity of the fluorescence was captured by the CCD camera every 15 seconds for the first 10 minutes of agonist exposure followed by every 20 seconds for an additional 50 minutes with the data being digitally transferred to an interfaced PC. […] The test compounds were incubated for 10 minutes with the THP-1 cells at room temperature, after which the cells were stimulated with BzATP and fluorescence measured as described above in the […] of the antagonist. […]

Substance: benzoylbenzoic ATP [BzATP]
- EC70 value for agonist activation: 50 µM
